Measured values: patent US20240024313A1, “BIARYL ETHER UREA COMPOUNDS” (Jazz Pharmaceuticals Ireland Limited, priority 2022, published 2024)

Key:
[1] = Phase 1 crossover pharmacokinetic study of Compound of Formula (II) formulations in healthy adult participants; details: human, in vivo, oral, preliminary data; for AUC(0-t) / Cmax: 4 mg
Protocol: Partial preliminary data on Compound of Formula (II), Compound B, and Compound C) were obtained from a phase 1, single-center, open-label, randomized, 3-period, 2-sequence crossover study to characterize the PK, safety, and tolerability of Compound of Formula (II) formulations (capsule vs tablet) in healthy adult participants. In Periods 1 and 2, participants were randomized to receive 4 mg Compound of Formula (II) capsule formulation or 4 mg Compound of Formula (II) tablet formulation.
Pharmacokinetic parameters for compound of Formula (II), Compound B, and Compound C following single dose of 4 mg of compound of Formula (II) are provided in Table 3. Pharmacokinetic parameters for compound of Formula (II), Compound B, and Compound C following multiple doses of 4 mg of compound of Formula (II) are provided in Table 4.

[2] = molecular target: T1, Rat FAAH (Rattus norvegicus, UniProt P97612); assay: Fluorometric-based Rat FAAH Inhibition Assay; format: biochemical; details: recombinant rat FAAH 20 nM, 1 hour preincubation, 2 μM AMC Arachidonoyl Amide substrate
T1 construct: truncated rat FAAH encoding amino acids residues 30-579; 6xHis (N); TEV cleavage site (N); made in house; host or cells: E. coli (pLysS cells)
T1 sequence (P97612 30-579): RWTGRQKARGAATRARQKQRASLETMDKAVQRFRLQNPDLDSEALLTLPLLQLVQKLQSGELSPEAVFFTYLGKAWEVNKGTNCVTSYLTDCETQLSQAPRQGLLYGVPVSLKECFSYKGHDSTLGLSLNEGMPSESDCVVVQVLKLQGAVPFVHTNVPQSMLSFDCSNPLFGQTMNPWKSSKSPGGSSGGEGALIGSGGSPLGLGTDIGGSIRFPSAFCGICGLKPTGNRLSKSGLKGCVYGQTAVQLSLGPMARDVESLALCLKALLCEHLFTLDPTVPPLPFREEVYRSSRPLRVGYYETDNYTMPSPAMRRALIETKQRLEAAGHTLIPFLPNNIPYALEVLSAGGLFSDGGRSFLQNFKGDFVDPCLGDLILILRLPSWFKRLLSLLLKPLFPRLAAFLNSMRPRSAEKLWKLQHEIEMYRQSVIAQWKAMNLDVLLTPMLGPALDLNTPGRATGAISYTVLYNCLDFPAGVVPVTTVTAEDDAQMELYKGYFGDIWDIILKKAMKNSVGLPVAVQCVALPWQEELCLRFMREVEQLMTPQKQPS
Protocol: Rat FAAH protein was prepared using the following method: Recombinant truncated rat FAAH encoding amino acids residues 30-579 were expressed in E. coli as NH2-terminal 6×HIS-tag and a TEV-cleavage site fusion protein. 6 L pLysS cells were induced to express FAAH. Cells were lysed and centrifuged. The insoluble pellet was resuspended using a Dounce homogenizer in CHAPS-containing buffer and allowed to stir at 4° C. for 1 hour. The resuspended pellet was then centrifuged and rat FAAH in the clarified supernatant was purified by IMAC. The purest protein fractions were pooled, and buffer exchanged into storage buffer by dialysis. The protein concentration was determined by Bradford assay aliquots were flash frozen in liquid nitrogen.
Fluorometric-based Rat FAAH Inhibition Assay was performed using the following method:
(§1) Assays were performed in standard-volume, black, non-binding 384-well plates (Corning #3654). All additions were carried out using the Agilent Bravo Automated Liquid Handler using an 384ST pipetting head.
(§2) FAAH reactions contained 20 nM Fatty Acid Amide Hydrolase (rat, recombinant) diluted in an assay buffer containing Tris-EDTA, pH 9.0 at ambient temperature. To obtain 20 nM FAAH per well, a working stock was made at 50 nM by diluting 150 μL of 7.93 μM enzyme to 24 mL of assay buffer, then adding 20 μL to each well. Using the mother plates (prepared at 1000× in DMSO), the Agilent Bravo performed a 1:100 dilution step in assay buffer prior to adding 5 μL to each well for an additional 1:10 dilution.
Plates were incubated at room temperature for 1 hour.
(§3) To initialize the reaction a final concentration of 2 μM of AMC Arachidonoyl Amide was added to each well. To obtain this concentration a working stock was made at 4 μM by adding 960 μL of 0.1 mM AMC stock to 24 mL of assay buffer, then 25 μL was added to each well. This stock was made at 4% DMSO for a final assay concentration contribution of 2% DMSO.
(§4) The total reaction volume per well was 50 μL. The reactions were allowed to proceed at 37° C. for 30 minutes with fluorescence monitored using a Cytation 5 Multimode imaging plate reader (BioTek Instruments) using excitation and emission wavelengths of 350/10 nm and 455/10 nm, respectively. Rates (RFU/min) were calculated from the linear portion of the reaction curves using a linear least squares curve fitting method using Gen5 v3.10. Calculated rates were then normalized to DMSO control and presented as percentages. Data were graphed and statistics were performed using GraphPad Prism v9.0.1.
Data for the Fluorometric-based Rat FAAH Inhibition Assay are recited in Table 2 and in FIG. 2.

[3] = molecular target: T2, Human FAAH (Homo sapiens, UniProt O00519); assay: Fluorometric-based Human FAAH Inhibition Assay; format: biochemical; details: recombinant human FAAH 125 nM, 1 hour preincubation, AMC Arachidonoyl Amide substrate
T2 construct: Recombinant human FAAH encoding full length amino acids were expressed in insect cells; made in house; host or cells: insect cells (baculovirus infection)
T2 sequence (O00519 1-579): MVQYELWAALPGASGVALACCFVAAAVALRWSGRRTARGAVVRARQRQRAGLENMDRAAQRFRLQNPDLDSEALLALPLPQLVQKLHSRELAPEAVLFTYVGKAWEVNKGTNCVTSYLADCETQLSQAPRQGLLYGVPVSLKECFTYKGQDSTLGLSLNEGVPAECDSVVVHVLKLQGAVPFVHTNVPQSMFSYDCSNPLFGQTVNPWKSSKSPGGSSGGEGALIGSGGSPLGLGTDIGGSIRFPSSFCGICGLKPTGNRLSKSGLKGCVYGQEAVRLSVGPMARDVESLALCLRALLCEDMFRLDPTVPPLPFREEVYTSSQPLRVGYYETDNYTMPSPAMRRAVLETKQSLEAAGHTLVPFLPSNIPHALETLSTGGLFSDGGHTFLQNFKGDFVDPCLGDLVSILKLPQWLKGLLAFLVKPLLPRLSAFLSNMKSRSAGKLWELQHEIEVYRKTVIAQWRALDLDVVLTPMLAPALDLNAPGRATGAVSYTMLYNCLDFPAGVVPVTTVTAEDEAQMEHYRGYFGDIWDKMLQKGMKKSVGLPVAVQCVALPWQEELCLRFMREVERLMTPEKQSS
Protocol: Human FAAH protein was prepared using the following method: Recombinant human FAAH encoding full length amino acids were expressed in insect cells using baculovirus infection as C-terminal (non-cleavable) 8×His tag fusion protein. Protein was supplied as cell lysate: resuspended 100,000×g pellet at 5.12 mg/ml a buffer containing 20 mM HEPES, pH 7.8, 150 mM NaCl, 1 mM EDTA, 1 mM DTT, 0.5% CHAPS. Specific activity was determined to be 844 U/mg.
Fluorometric-based Human FAAH Inhibition Assay was performed using the following method:
as §1
as §2, with “contained 125” for “contained 20”, “Hydrolase (human,” for “Hydrolase (rat,”, “obtain 125” for “obtain 20”, “at 312.5” for “at 50”, “diluting 94” for “diluting 150”, “of 79.63” for “of 7.93”
Plates were incubated at room-temperature for 1 hour.
as §3, with “the reaction,” for “the reaction”, “of […]” for “of 2 μM”, “this concentration,” for “this concentration”, “at […]” for “at 4 μM”
as §4
Data for the Fluorometric-based Human FAAH Inhibition Assay are recited in Table 2 and in FIG. 1.

[4] = following multiple doses of 4 mg of compound of Formula (II)
[5] = following single dose of 4 mg of compound of Formula (II)

| AUC(0-t) [1, 4] | Cmax [1, 4] | AUC(0-t) [1, 5] | Cmax [1, 5] | AUC [1, 4] | Tmax [1, 4] | half-life [1, 4] | IC50 [2] | IC50 [3] | SMILES |
| --- | --- | --- | --- | --- | --- | --- | --- | --- | --- |
| 906 ng·h/mL | 9.3 ng/mL | 0.6 ng·h/mL | 0.3 ng/mL | 208 ng·h/mL | 24 h | 85 h | 85.2 ± 9.33 nM | 12.4 ± 0.89 nM | O=C1CCC(NC(=O)N2CCC(=Cc3cccc(Oc4ccc(C(F)(F)F)cn4)c3)CC2)=NN1 [Compound B, N-(6-oxo-1,4,5,6-tetrahydropyridazin-3-yl)-4-(3-((5-(trifluoromethyl)pyridin-2-yl)oxy)benzylidene)piperidine-1-carboxamide] |
|  |  |  |  |  |  |  | 56.8 ± 16.6 nM | 9.01 ± 0.68 nM | O=C(Nc1cccnn1)N1CC/C(=C\c2cccc(Oc3ccc(C(F)(F)F)cn3)c2)[C@@H](O)C1 [Compound A-RE, (R,E)-3-hydroxy-N-(pyridazin-3-yl)-4-(3-((5-(trifluoromethyl)pyridin-2-yl)oxy)benzylidene)piperidine-1-carboxamide] |
|  |  |  |  |  |  |  | 3290 ± 583 nM | 300 ± 54.9 nM | O=C(Nc1cccnn1)N1CC/C(=C/c2cccc(Oc3ccc(C(F)(F)F)cn3)c2)[C@H](O)C1 [Compound A-SZ, (S,Z)-3-hydroxy-N-(pyridazin-3-yl)-4-(3-((5-(trifluoromethyl)pyridin-2-yl)oxy)benzylidene)piperidine-1-carboxamide] |
|  |  |  |  |  |  |  | 3720 ± 542 nM | 439 ± 14.7 nM | O=C(Nc1cccnn1)N1CC/C(=C\c2cccc(Oc3ccc(C(F)(F)F)cn3)c2)[C@H](O)C1 [Compound A-SE, (S,E)-3-hydroxy-N-(pyridazin-3-yl)-4-(3-((5-(trifluoromethyl)pyridin-2-yl)oxy)benzylidene)piperidine-1-carboxamide] |
|  |  |  |  |  |  |  | 3480 ± 654 nM | 555 ± 84.4 nM | O=C(Nc1cccnn1)N1CCC(O)(C(O)c2cccc(Oc3ccc(C(F)(F)F)cn3)c2)CC1 (centres unmarked) [Compound D, 4-hydroxy-4-(hydroxy(3-((5-(trifluoromethyl)pyridin-2-yl)oxy)phenyl)methyl)-N-(pyridazin-3-yl)piperidine-1-carboxamide] |
| 1340 ng·h/mL | 46.6 ng/mL | 138 ng·h/mL | 31.3 ng/mL | 625 ng·h/mL | 2 h | 32.2 h | 10.2 ± 1.17 nM | 3.56 ± 0.67 nM | O=C(Nc1cccnn1)N1CCC(=Cc2cccc(Oc3ccc(C(F)(F)F)cn3)c2)CC1 [Compound of Formula (II), reference compound] |
| 281 ng·h/mL | 3.9 ng/mL | 1.1 ng·h/mL | 0.4 ng/mL | 86 ng·h/mL | 8 h | 40.4 h | 39.6 ± 5.84 nM | 758 ± 11.2 nM | O=C(O)CCC(=O)NC(=O)N1CCC(=Cc2cccc(Oc3ccc(C(F)(F)F)cn3)c2)CC1 [Compound C, 4-oxo-4-(4-(3-((5-(trifluoromethyl)pyridin-2-yl)oxy)benzylidene)piperidine-1-carboxamido)butanoic acid] |
|  |  |  |  |  |  |  | 170 ± 43 nM | 39.3 ± 2.89 nM | O=C(Nc1cccnn1)N1CC/C(=C/c2cccc(Oc3ccc(C(F)(F)F)cn3)c2)[C@@H](O)C1 [Compound A-RZ, (R,Z)-3-hydroxy-N-(pyridazin-3-yl)-4-(3-((5-(trifluoromethyl)pyridin-2-yl)oxy)benzylidene)piperidine-1-carboxamide] |
|  |  |  |  |  |  |  |  | 34400 ± 24100 nM | FC(F)(F)c1ccc(Oc2cccc(C=C3CCNCC3)c2)nc1 [Compound E, 2-(3-(piperidin-4-ylidenemethyl)phenoxy)-5-(trifluoromethyl)pyridine] |
